Data taken from patent US11046716B2, “Beta-lactamase inhibitors” (priority 2015, dated 2021).

Legend:
[1] = system: E. coli expressing the Class A Extended Spectrum Beta-Lactamase (ESBL) CTX-M-15; experiment: Broth microdilution MIC assay with ceftazidime, E. coli CTX-M-15; type: cell-based; conditions: for MIC (μg/mL) of Exemplary Compounds in presence of fixed β-lactams: E. coli ESBL4 CTX-M-15: Fixed CAZ (ceftazidime) 4 μg/mL
Text: (§1) To determine the ability of test compounds to potentiate the inhibition of the growth of bacterial strains that produce beta-lactamase enzymes in the presence of a β-lactam antibiotic, classic cell based broth microdilution MIC assays were employed. Six bacteria strains producing beta-lactamase enzymes were used: E. coli expressing the Class A Extended Spectrum Beta-Lactamase (ESBL) CTX-M-15, E. cloacae expressing the Class C P99, K. pneumoniae expressing the Class A carbapenemase KPC-2, P. aeruginosa expressing the Class B carbapenemase VIM-2, K. pneumoniae expressing the class A carbapenemase KPC-2 and the class B carbapenemase VIM-4, and K. pneumoniae producing the Class D carbapenemase OXA-48. The assay was conducted in Cation Adjusted Mueller Hinton Broth (CAMHB, BD #212322, BD Diagnostic Systems, Sparks, Md.). Bacteria strains were grown for 3-5 hours in CAMBH broth. Test compounds (Examples 1-94) were added to a microtiter plate in 2-fold serial dilutions in CAMHB in a final concentration range of 16 μg/mL to 0.125 μg/ml. An overlay of CAMHB containing a Beta-lactam was added to the compounds at a final static concentration of 4 μg/ml. […] In addition to the titration of test compounds the MICs of a panel of control beta-lactams is also tested to ensure the strains are behaving consistently from test to test. Once the test compound and antibiotics are added the plates can be inoculated according to CLSI broth microdilution method. After inoculation the plates are incubated for 16-20 hours at 37° C. then the Minimal Inhibitory Concentration (MIC) of the test compound is determined visually.
(§2) Using the methodology described above, examples of the current invention were evaluated for their ability to inhibit the growth of β-lactamase-producing bacteria in the presence of a β-lactam antibiotic.

[2] = system: E. cloacae expressing the Class C P99; experiment: Broth microdilution MIC assay with ceftazidime, E. cloacae P99; type: cell-based; conditions: Enterobacter cloacae, read-out: MIC alone
Text: as §1, §2

[3] = system: K. pneumoniae expressing the Class A carbapenemase KPC-2; experiment: Broth microdilution MIC assay with meropenem, K. pneumoniae KPC-2; type: cell-based; conditions: Fixed Mero (meropenem) 4 μg/mL; K. p. 156319 KPC-3
Text: as §1, §2

[4] = system: K. pneumoniae producing the Class D carbapenemase OXA-48; experiment: Broth microdilution MIC assay with meropenem, K. pneumoniae OXA-48; type: cell-based; conditions: Fixed Mero (meropenem) 4 μg/mL; K. p. 11978 OXA-48
Text: as §1, §2

OXA-48 = OXA-48 (UniProt Q6XEC0); experiment: β-lactamase enzyme inhibition assay, Class D oxacillinase; type: biochemical; conditions: read-out: OXA-48
AmpC = molecular target: T1, AmpC (Enterobacter cloacae, UniProt P05364); experiment: β-lactamase enzyme inhibition assay, p99 AmpC (nitrocefin substrate); type: biochemical
T1 construct: made in house; host or cells: E. coli BL21(DE3)
Procedure: (§3) For SHV-5, Kpc-2, p99AmpC and OXA-1 β-lactamases, E. coli BL21(DE3) bacterial cells carrying expression plasmids (expressed as native untagged proteins) for the individual β-lactamases were grown in 1 L of Superbroth (Teknova Inc. Hollister, Calif.) supplemented with 100 μg/ml kanamycin selection and 1×5052 (0.5% glycerol, 0.05% glucose and 0.2% α-lactose) at 35° C. for 18-20 hours. Cells were harvested by centrifugation (4,000×g, 4° C., 20 min), resuspended in 50 ml of 10 mM HEPES pH 7.5 ( 1/20 of the initial volume). The cells were lysed by sonication (5 pulses of 45 seconds) at 45 W on ice. The lysates were clarified by centrifugation at 10,000×g for 40 minutes at 4° C. Samples were diluted 5-fold in 50 mM sodium acetate pH 5.0, stored overnight at 4° C., after which they were centrifuged at 10,000×g for 30 minutes to clarify, and filtered through 0.45 μm filters. The samples were loaded onto a 5 ml Capto S sepharose cation exchange column (GE Healthcare) pre-equilibrated with 50 mM sodium acetate pH 5.0. The column was washed with 5 column volumes of 50 mM sodium acetate pH 5.0 to wash out unbound protein and a linear gradient of NaCl (0 to 500 mM) was used to elute the protein (over 16 CV) from the column. Fractions were assayed for β-lactamase activity using Centa (Calbiochem, Gibbstown, N.J.) or Nitrocefin (EMD Millipore chemicals, Darmstadt, Germany) as a reporter β-lactamase substrate for activity in the isolated fractions. Active fractions were pooled, concentrated and further purified by gel filtration chromatography on a Superdex 75 prep grade gel filtration column (GE Healthcare, Piscataway, N.J.) pre-equilibrated in 50 mM Hepes pH 7.5, 150 mM NaCl. Active fractions were pooled concentrated, quantitated by BCA protein determination (Thermo Scientific, Rockford, Ill.), dialyzed into PBS and frozen at −80° C. in 20% glycerol until use.
(§4) An equal volume of diluted enzyme stock was added, and the plates were incubated at 37° C. for 15 min. Nitrocefin was used as substrate for p99 AmpC, VIM-2 and OXA-1 and dispensed into each well at a final concentration of 100 μM. Absorbance at 486 nm was immediately monitored for 10 min using a Biotek Powerwave XS2 microplate spectrophotometer using the GEN5 software package (Biotek Instruments, Winooski Vt.). In an analogous fashion, imipenem was used as substrate for Kpc-2 and Cefotaxime was used for SHV-5, while changes in absorbance upon hydrolysis of the β-lactam ring were monitored at 300 nm and 260 nm respectively in UV-transparent 96-well microtiter assay plates. Maximum rates of hydrolysis were compared to those in control wells (without inhibitors), and percentages of enzyme inhibition were calculated for each concentration of inhibitor. The concentration of inhibitor needed to reduce the initial rate of hydrolysis of substrate by 50% (IC50) was calculated as the residual activity of β-lactamase at 486 nm using GraFit version 7 kinetics software package (Erithacus Software, Surrey, UK).
(§5) Using the methodology described above, examples of the current invention were evaluated for their ability to inhibit β-lactamase enzymes from all four Ambler classifications (A through D). […] NT=Not tested.

VIM-2 = molecular target: T2, VIM-2 (Escherichia coli, UniProt Q5U7L7); experiment: β-lactamase enzyme inhibition assay, VIM-2 (nitrocefin substrate); type: biochemical; conditions: Class B; nitrocefin substrate, 486 nm; read-out: VIM-2
T2 construct: made in house; host or cells: E. coli BL21(DE3)
Procedure: For Vim-2 metallo β-lactamase, the procedure was identical with the following exceptions, first the protein was not pH adjusted to pH 5 with 50 mM sodium acetate, second, the chromatography step was changed to a 5 ml Q sepharose anion exchange column pre-equilibrated with 50 mM Hepes pH 7.5, and elution of the protein was achieved by a linear gradient of NaCl (0-600 mM). Finally, the VIM-2 purification required a second run (3rd step) on the Q sepharose anion exchange column to achieve acceptable purity (>90%).
as §4, §5

[5] = system: K. pneumoniae expressing the class A carbapenemase KPC-2 and the class B carbapenemase VIM-4; experiment: Broth microdilution MIC assay with meropenem, K. pneumoniae KPC-2 and VIM-4; type: cell-based; conditions: Fixed Mero (meropenem) 4 μg/mL; K. p. A-1797 KPC-2 VIM-4
Text: as §1, §2

SHV-5 = molecular target: T3, SHV-5 (Klebsiella pneumoniae, UniProt P0A3M1); experiment: β-lactamase enzyme inhibition assay, SHV-5 (cefotaxime substrate); type: biochemical
T3 construct: made in house; host or cells: E. coli BL21(DE3)
Procedure: as §3, §4, §5

KPC-2 = molecular target: T4, KPC-2 (Klebsiella pneumoniae, UniProt Q9F663); experiment: β-lactamase enzyme inhibition assay, KPC-2 (imipenem substrate); type: biochemical; conditions: Class A; imipenem substrate, 300 nm; read-out: KPC-2
T4 construct: made in house; host or cells: E. coli BL21(DE3)
Procedure: as §3, §4, §5

[6] = system: P. aeruginosa expressing the Class B carbapenemase VIM-2; experiment: Broth microdilution MIC assay with meropenem, P. aeruginosa VIM-2; type: cell-based; conditions: Fixed Mero (meropenem) 4 μg/mL; P. aerug. 2775 VIM-2
Text: as §1, §2

T1 sequence (P05364 21-381): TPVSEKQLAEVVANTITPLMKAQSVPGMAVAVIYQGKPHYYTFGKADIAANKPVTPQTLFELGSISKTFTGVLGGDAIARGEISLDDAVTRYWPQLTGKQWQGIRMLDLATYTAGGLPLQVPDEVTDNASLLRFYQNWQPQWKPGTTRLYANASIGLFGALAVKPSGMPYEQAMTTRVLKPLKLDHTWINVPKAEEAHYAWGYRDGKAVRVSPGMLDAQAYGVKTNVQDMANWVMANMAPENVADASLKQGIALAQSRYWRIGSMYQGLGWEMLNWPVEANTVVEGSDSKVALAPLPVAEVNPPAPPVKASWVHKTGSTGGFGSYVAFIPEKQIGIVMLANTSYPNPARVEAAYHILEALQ
T4 sequence (Q9F663 25-293, looked up): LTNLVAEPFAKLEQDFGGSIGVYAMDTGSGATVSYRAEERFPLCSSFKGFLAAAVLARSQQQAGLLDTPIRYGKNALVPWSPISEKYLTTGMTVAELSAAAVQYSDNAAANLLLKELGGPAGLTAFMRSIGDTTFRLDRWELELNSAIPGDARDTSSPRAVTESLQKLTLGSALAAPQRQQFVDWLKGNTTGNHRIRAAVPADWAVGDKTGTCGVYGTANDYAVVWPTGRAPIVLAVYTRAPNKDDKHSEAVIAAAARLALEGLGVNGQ
T3 sequence (P0A3M1 22-286): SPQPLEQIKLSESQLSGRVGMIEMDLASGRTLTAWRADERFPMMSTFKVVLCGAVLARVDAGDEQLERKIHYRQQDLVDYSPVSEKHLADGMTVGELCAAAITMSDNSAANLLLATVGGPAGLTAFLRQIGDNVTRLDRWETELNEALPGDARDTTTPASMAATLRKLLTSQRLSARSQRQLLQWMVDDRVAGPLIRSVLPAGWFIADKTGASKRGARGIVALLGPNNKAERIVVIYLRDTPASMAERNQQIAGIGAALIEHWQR

Structure (SMILES) | MIC ([1]; Escherichia coli, read-out: MIC alone) | MIC [2] | MIC (μg/mL) of Exemplary Compounds in presence of fixed β-lactams: K. p. 156319 KPC-3 [3] | MIC (μg/mL) of Exemplary Compounds in presence of fixed β-lactams: K. p. 11978 OXA-48 [4] | IC50 (OXA-48) | IC50 (AmpC) | MIC (μg/mL) of Exemplary Compounds in presence of fixed β-lactams: E. coli ESBL4 CTX-M-15 [1] | IC50 (VIM-2) | MIC (μg/mL) of Exemplary Compounds in presence of fixed β-lactams: K. p. A-1797 KPC-2 VIM-4 [5] | IC50 (SHV-5) | IC50 (KPC-2) | MIC (μg/mL) of Exemplary Compounds in presence of fixed β-lactams: P. aerug. 2775 VIM-2 [6]
CC(C)(O/N=C(\C(=O)N[C@@H]1C(=O)N2C(C(=O)[O-])=C(C[n+]3ccccc3)CS[C@H]12)c1csc(N)n1)C(=O)O [Ceftazidime, ceftazidime, reference compound] | > 128 µg/mL | 128 µg/mL | – | – | – | – | – | – | – | – | – | –
NCCCc1c(CN)nnn1CC(=O)N[C@H]1Cc2cccc(C(=O)O)c2OB1O [Example 110, (R)-3-(2-(4-(aminomethyl)-5-(3-aminopropyl)-1H-1,2,3-triazol-1-yl)acetamido)-2-hydroxy-3,4-dihydro-2H-benzo[e][1,2]oxaborinine-8-carboxylic acid] | – | – | C (C represents an MIC of <1 μg/mL) | B (B represents an MIC between 1 and 16 μg/mL inclusive) | 100 to 1000 nM | 100 to 1000 nM | C (C represents an MIC of <1 μg/mL) | < 100 nM | C (C represents an MIC of <1 μg/mL) | 1000 to 10000 nM | 100 to 1000 nM | C (C represents an MIC of <1 μg/mL)
O=C(Cn1cc(CF)nn1)N[C@H]1Cc2cccc(C(=O)O)c2OB1O [Example 111, (R)-3-(2-(4-(fluoromethyl)-1H-1,2,3-triazol-1-yl)acetamido)-2-hydroxy-3,4-dihydro-2H-benzo[e][1,2]oxaborinine-8-carboxylic acid] | – | – | B (B represents an MIC between 1 and 16 μg/mL inclusive) | B (B represents an MIC between 1 and 16 μg/mL inclusive) | 100 to 1000 nM | < 100 nM | C (C represents an MIC of <1 μg/mL) | 1000 to 10000 nM | B (B represents an MIC between 1 and 16 μg/mL inclusive) | < 100 nM | < 100 nM | B (B represents an MIC between 1 and 16 μg/mL inclusive)
O=C(Cn1cc(CNCCCC(F)(F)F)nn1)N[C@H]1Cc2cccc(C(=O)O)c2OB1O [Example 112, (R)-2-hydroxy-3-(2-(4-(((4,4,4-trifluorobutyl)amino)methyl)-1H-1,2,3-triazol-1-yl)acetamido)-3,4-dihydro-2H-benzo[e][1,2]oxaborinine-8-carboxylic acid] | – | – | B (B represents an MIC between 1 and 16 μg/mL inclusive) | A (A represents an MIC>16 μg/mL) | 100 to 1000 nM | < 100 nM | C (C represents an MIC of <1 μg/mL) | 100 to 1000 nM | B (B represents an MIC between 1 and 16 μg/mL inclusive) | 100 to 1000 nM | 100 to 1000 nM | C (C represents an MIC of <1 μg/mL)
O=C(Cn1ccc(B(O)O)n1)N[C@H]1Cc2cccc(C(=O)O)c2OB1O [Example 116, (R)-3-(2-(3-borono-1H-pyrazol-1-yl)acetamido)-2-hydroxy-3,4-dihydro-2H-benzo[e][1,2]oxaborinine-8-carboxylic acid] | – | – | B (B represents an MIC between 1 and 16 μg/mL inclusive) | B (B represents an MIC between 1 and 16 μg/mL inclusive) | 100 to 1000 nM | < 100 nM | C (C represents an MIC of <1 μg/mL) | 1000 to 10000 nM | B (B represents an MIC between 1 and 16 μg/mL inclusive) | < 100 nM | < 100 nM | C (C represents an MIC of <1 μg/mL)
NCCn1cc(CC(=O)N[C@H]2Cc3cccc(C(=O)O)c3OB2O)nn1 [Example 122, (R)-3-(2-(1-(2-aminoethyl)-1H-1,2,3-triazol-4-yl)acetamido)-2-hydroxy-3,4-dihydro-2H-benzo[e][1,2]oxaborinine-8-carboxylic acid] | – | – | B (B represents an MIC between 1 and 16 μg/mL inclusive) | B (B represents an MIC between 1 and 16 μg/mL inclusive) | 100 to 1000 nM | < 100 nM | C (C represents an MIC of <1 μg/mL) | 100 to 1000 nM | B (B represents an MIC between 1 and 16 μg/mL inclusive) | < 100 nM | < 100 nM | C (C represents an MIC of <1 μg/mL)
